Data on 29 compounds can be found in patent publication US6635635B2, “Benzothiadiazine compounds” (Les Laboratoires Servier, priority 2000, dated 2003).

Test system in the first series: not given
Assay: not given
Conditions: not given
Take `O=C(Oc1ccc2c(c1)S(=O)(=O)NC1CCCN21)C1CCC1` (stereo not drawn) [Example 17, 5,5-Dioxo-2,3,3a,4-tetrahydro-1H-pyrrolo[2,1-c][1,2,4]-benzothiadiazin-7-yl cyclobutanecarboxylate]: the melting point was in the range of 166 to 170 °C.

Regarding `O=C(C=Cc1ccccc1)Oc1ccc2c(c1)S(=O)(=O)NC1CCCN21` (stereo not drawn) [Example 23, 5,5-Dioxo-2,3,3a,4-tetrahydro-1H-pyrrolo[2,1-c][1,2,4]-benzothiadiazin-7-yl 3-phenyl-2-propenoate], the melting point was 193 to 198 °C.

For the compound `O=C(Oc1ccc2c(c1)S(=O)(=O)NC1CCCN21)c1ccc(-c2ccccc2)cc1` (stereo not drawn) [Example 21, 5,5-Dioxo-2,3,3a,4-tetrahydro-1H-pyrrolo[2,1-c][1,2,4]-benzothiadiazin-7-yl [1,1′-biphenyl]-4-carboxylate], the melting point fell in the range of 249 to 253 °C.

`O=C(Oc1ccc2c(c1)S(=O)(=O)NC1CCCN21)C1CC1` (stereo not drawn) [Example 18, 5,5-Dioxo-2,3,3a,4-tetrahydro-1H-pyrrolo[2,1-c][1,2,4]-benzothiadiazin-7-yl cyclopropanecarboxylate] yielded a melting point of 169 to 171 °C.

Compound `O=C(Oc1ccc2c(c1)S(=O)(=O)NC1CCCN21)c1cccs1` (stereo not drawn) [Ex. 34, 5,5-Dioxo-2,3,3a,4-tetrahydro-1H-pyrrolo[2,1-c][1,2,4]-benzothiadiazin-7-yl 2-thiophenecarboxylate] showed a melting point of 212 to 214 °C.

The compound `O=C(Oc1ccc2c(c1)S(=O)(=O)NC1CCCN21)c1cccc(Cl)c1` (stereo not drawn) [Example 26, 5,5-Dioxo-2,3,3a,4-tetrahydro-1H-pyrrolo[2,1-c][1,2,4]-benzothiadiazin-7-yl 3-chlorobenzoate] yielded a melting point of 243 to 247 °C.

Compound `O=C(Oc1ccc2c(c1)S(=O)(=O)NC1CCCN21)C1CCCC1` (stereo not drawn) [Example 16, 5,5-Dioxo-2,3,3a,4-tetrahydro-1H-pyrrolo[2,1-c][1,2,4]-benzothiadiazin-7-yl cyclopentanecarboxylate] yielded a melting point of 148 to 150 °C.

As for `O=C(Oc1ccc2c(c1)S(=O)(=O)NC1CCCN21)c1cccnc1` (stereo not drawn) [Ex. 37, 5,5-Dioxo-2,3,3a,4-tetrahydro-1H-pyrrolo[2,1-c][1,2,4]-benzothiadiazin-7-yl nicotinate], the melting point lay within 227 to 230 °C.

For `O=C(Oc1ccc2c(c1)S(=O)(=O)NC1CCCN21)c1ccc2ccccc2c1` (stereo not drawn) [Example 20, 5,5-Dioxo-2,3,3a,4-tetrahydro-1H-pyrrolo[2,1-c][1,2,4]-benzothiadiazin-7-yl 2-naphthalenecarboxylate], the melting point is 207 to 210 °C.

With `Cl.O=C(Oc1ccc2c(c1)S(=O)(=O)NC1CCCN21)c1ccccn1` (stereo not drawn), the melting point was 227 to 230 °C.

In turn, `Cl.O=C(Oc1ccc2c(c1)S(=O)(=O)NC1CCCN21)c1ccncc1` (stereo not drawn) registered a melting point of 243 to 247 °C.

In turn, `O=C(Oc1ccc2c(c1)S(=O)(=O)NC1CCCN21)c1ccoc1` (stereo not drawn) [Example 35, 5,5-Dioxo-2,3,3a,4-tetrahydro-1H-pyrrolo[2,1-c][1,2,4]-benzothiadiazin-7-yl 3-furancarboxylate] registered a melting point of 185 to 187 °C.

`Cc1ccccc1C(=O)Oc1ccc2c(c1)S(=O)(=O)NC1CCCN21` (stereo not drawn) [Example 30, 5,5-Dioxo-2,3,3a,4-tetrahydro-1H-pyrrolo[2,1-c][1,2,4]-benzothiadiazin-7-yl 2-methylbenzoate] registered a melting point of 218 to 221 °C.

`N#Cc1cccc(C(=O)Oc2ccc3c(c2)S(=O)(=O)NC2CCCN32)c1` (stereo not drawn) [Example 31, 5,5-Dioxo-2,3,3a,4-tetrahydro-1H-pyrrolo[2,1-c][1,2,4]-benzothiadiazin-7-yl 3-cyanobenzoate]: the melting point is 203 to 206 °C.

For the compound `O=C(Oc1ccc2c(c1)S(=O)(=O)NC1CCCN21)C1CCCCC1` (stereo not drawn) [Example 14, 5,5-Dioxo-2,3,3a,4-tetrahydro-1H-pyrrolo[2,1-c][1,2,4]-benzothiadiazin-7-yl cyclohexanecarboxylate], the melting point stood at 157 °C.

Compound `O=C(Oc1ccc2c(c1)S(=O)(=O)NC1CCCN21)c1ccsc1` (stereo not drawn) [Example 33, 5,5-Dioxo-2,3,3a,4-tetrahydro-1H-pyrrolo[2,1-c][1,2,4]-benzothiadiazin-7-yl 3-thiophenecarboxylate] came in with a melting point of 208 to 212 °C.

Compound `Cc1cccc(C(=O)Oc2ccc3c(c2)S(=O)(=O)NC2CCCN32)c1` (stereo not drawn) [Example 29, 5,5-Dioxo-2,3,3a,4-tetrahydro-1H-pyrrolo[2,1-c][1,2,4]-benzothiadiazin-7-yl 3-methylbenzoate] gave a melting point of 214 to 218 °C.

`Cc1ccc(C(=O)Oc2ccc3c(c2)S(=O)(=O)NC2CCCN32)cc1` (stereo not drawn) [Ex. 28, 5,5-Dioxo-2,3,3a,4-tetrahydro-1H-pyrrolo[2,1-c][1,2,4]-benzothiadiazin-7-yl 4-methylbenzoate]: the melting point is 198 to 200 °C.

For `O=C(Cc1ccccc1)Oc1ccc2c(c1)S(=O)(=O)NC1CCCN21` (stereo not drawn), the melting point fell in the range of 169 to 171 °C.

`COc1ccc(C(=O)Oc2ccc3c(c2)S(=O)(=O)NC2CCCN32)cc1` (stereo not drawn) [Example 24, 5,5-Dioxo-2,3,3a,4-tetrahydro-1H-pyrrolo[2,1-c][1,2,4]-benzothiadiazin-7-yl 4-methoxybenzoate] returned a melting point of 216 to 221 °C.

Consider `O=C(Oc1ccc2c(c1)S(=O)(=O)NC1CCCN21)c1ccco1` (stereo not drawn) [Ex. 36, 5,5-Dioxo-2,3,3a,4-tetrahydro-1H-pyrrolo[2,1-c][1,2,4]-benzothiadiazin-7-yl 2-furancarboxylate], for which the melting point was in the range of 205 to 208 °C.

In the case of `N#Cc1ccc(C(=O)Oc2ccc3c(c2)S(=O)(=O)NC2CCCN32)cc1` (stereo not drawn) [Example 27, 5,5-Dioxo-2,3,3a,4-tetrahydro-1H-pyrrolo[2,1-c][1,2,4]-benzothiadiazin-7-yl 4-cyanobenzoate], the melting point was 260 to 264 °C.

A further series concerns AMPA receptor. Description: Study of excitatory fluxes induced by AMPA in Xenopus oocytes (2-electrode voltage-clamp). The conditions noted are these: Xenopus oocytes injected with poly(A+) mRNA from rat cerebral cortex; AMPA 10 μM; 20-24° C. It counts as cell-based. As to the method:
Study of Excitatory Fluxes Induced by AMPA in Xenopus oocytes
mRNAs are prepared from cerebral cortex of male Wistar rat by the guanidium thiocyanate/phenol/chloroform method. The poly (A^+) mRNAs are isolated by chromatography on oligo-dT cellulose and injected with 50 ng per oocyte. The oocytes are left for 2 to 3 days' incubation at 18° C. to enable expression of the receptors and are then stored at 8-10° C.
Electrophysiological recording is carried out in a Plexiglass® chamber at 20-24° C. in an OR2 medium (J. Exp. Zool., 1973, 184, 321-334) by the 2-electrode “voltage-clamp” method, with a 3rd electrode being placed in the bath to serve as reference.
All the compounds are administered via the incubation medium and the electric current is measured at the end of the period of administration. AMPA is used in a concentration of 10 μM. For each compound studied, there is determined the concentration that doubles (EC2X) or quintuples (EC5X) the intensity of the flux induced by AMPA alone (5 to 50 nA).
`O=C(Oc1ccc2c(c1)S(=O)(=O)NC1CCCN21)c1cccs1` (stereo not drawn) [Ex. 34, 5,5-Dioxo-2,3,3a,4-tetrahydro-1H-pyrrolo[2,1-c][1,2,4]-benzothiadiazin-7-yl 2-thiophenecarboxylate]: the “EC2X (concentration that doubles the intensity of the flux induced by AMPA alone)” value (from here on “EC2X”) is 1.3 µM.

On to `O=C(Oc1ccc2c(c1)S(=O)(=O)NC1CCCN21)c1cccnc1` (stereo not drawn) [Ex. 37, 5,5-Dioxo-2,3,3a,4-tetrahydro-1H-pyrrolo[2,1-c][1,2,4]-benzothiadiazin-7-yl nicotinate], for which the “EC2X” value is 4.0 µM.

With `CC(=O)Oc1ccc2c(c1)S(=O)(=O)NC1CCCN21` (single isomer, unassigned) [Ex. 8, 5,5-Dioxo-2,3,3a,4-tetrahydro-1H-pyrrolo[2,1-c][1,2,4]benzothiadiazin-7-yl acetate, α isomer dextro], the “EC2X” value is 20 µM.

As for `CC(=O)Oc1ccc2c(c1)S(=O)(=O)NC1CCCN21` (single isomer, unassigned) [Ex. 9, 5,5-Dioxo-2,3,3a,4-tetrahydro-1H-pyrrolo[2,1-c][1,2,4]benzothiadiazin-7-yl acetate, β isomer levo], the “EC2X” value was determined as 296 µM.

Turning to `CC(C)(C)C(=O)Oc1ccc2c(c1)S(=O)(=O)NC1CCCN21` (stereo not drawn) [Ex. 10, 5,5-Dioxo-2,3,3a,4-tetrahydro-1H-pyrrolo[2,1-c][1,2,4]benzothiadiazin-7-yl pivalate], the “EC2X” value was found to be 14 µM.

For `CC(=O)Oc1ccc2c(c1)S(=O)(=O)NC1CCCN21` (stereo not drawn) [Ex. 7, 5,5-Dioxo-2,3,3a,4-tetrahydro-1H-pyrrolo[2,1c][1,2,4]benzothiadiazin-7-yl acetate], the “EC2X” value amounted to 34 µM.

Take `Cc1ccc(C(=O)Oc2ccc3c(c2)S(=O)(=O)NC2CCCN32)cc1` (stereo not drawn) [Ex. 28, 5,5-Dioxo-2,3,3a,4-tetrahydro-1H-pyrrolo[2,1-c][1,2,4]-benzothiadiazin-7-yl 4-methylbenzoate]: the “EC2X” value was determined as 3.6 µM.

On to `O=C(Oc1ccc2c(c1)S(=O)(=O)NC1CCCN21)c1ccccc1` (stereo not drawn) [Ex. 11, 5,5-Dioxo-2,3,3a,4-tetrahydro-1H-pyrrolo[2,1-c][1,2,4]benzothiadiazin-7-yl benzoate], for which the “EC2X” value was found to be 5 µM.

Turning to `O=S1(=O)NC2CCCN2c2cc(F)c(O)cc21` (stereo not drawn) [Ex. 4, 5,5-Dioxo-8-fluoro-2,3,3a,4-tetrahydro-1H-pyrrolo[2,1-c][1,2,4]-benzothiadiazin-7-ol], the “EC2X” value was found to be 35 µM.

On to `O=C(Oc1ccc2c(c1)S(=O)(=O)NC1CCCN21)c1ccco1` (stereo not drawn) [Ex. 36, 5,5-Dioxo-2,3,3a,4-tetrahydro-1H-pyrrolo[2,1-c][1,2,4]-benzothiadiazin-7-yl 2-furancarboxylate], for which the “EC2X” value stood at 2.0 µM.

As to `O=S1(=O)NC2CCCN2c2ccc(O)cc21` (stereo not drawn) [Ex. 1, 5,5-Dioxo-2,3,3a,4-tetrahydro-1H-pyrrolo[2,1-c][1,2,4]benzothiadiazin-7-ol], the “EC2X” value came out at 12 µM.
